Source: patent EP0602814A1, “Crystal forms of optically active isoindolines and their use” (TAKEDA CHEMICAL INDUSTRIES, LTD., priority 1992, dated 1994)
pIC50: −log10 of the molar value.

Legend:
Male rats (SD/JCL) = assay: Antianxiety action (Vogel method, anticonflict water drinking test); type: in vivo; settings: for Minimum Effective Dose (MED): rats; for antianxiety action stronger than that of the racemic compounds: ratio of MED of the racemic compound to MED of the optically active compound (Table 2)
benzodiazepine receptor = assay: [3H]diazepam binding to benzodiazepine receptor (crude mitochondrial fraction of cerebral cortex); parameters: species or system male SD rats; settings: inhibition of ³H-diazepam (2 nM) binding by 50%, 4 °C, 20 minutes, Tris-HCl pH 7.4; read-out: IC₅₀
Experimental: The affinity of the compound of the present invention to a benzodiazepine receptor was investigated using radioactive [³H] diazepam.
Capability of specific binding to a benzodiazepin receptor was determined in accordance with the method described in the literature [Nature, 266, 732 (1977); European J. Pharmacol., 48, 263 (1978)]. Specifically, a crude mitochondrial fraction obtained from the cerebral cortex of male SD rats at 9 to 10 weeks of age was suspended in 50 mM Tris-HCL buffer (pH 7.4), and incubated, together with several concentrations of the subject drug and ³H-diazepam (final concentration 2 nM), at 4 °C for 20 minutes. This suspension was then filtered through a Whatman GF/B glass fiber filter, and the ³H-diazepam radioactivity on the filter was measured using a liquid scintillation counter. The concentration of the subject drug at which ³H-diazepam binding was inhibited by 50% was taken as the IC₅₀ value.

SMILES	Minimum Effective Dose (MED) (Male rats (SD/JCL); p.o., 30 minutes after dosing, water drinking frequency in 3 minutes)	pIC50 (benzodiazepine receptor)	Minimum Effective Dose (MED) (Male rats (SD/JCL); i.p., Vogel method)	antianxiety action stronger than that of the racemic compounds (Male rats (SD/JCL)) [times]
O=C(CC1c2ccccc2C(=O)N1c1ccc2ccc(Cl)nc2n1)N1CCC2(CC1)OCCO2 (racemic) [Racemic compound of Example 1, 2-(7-chloro-1,8-naphthylidin-2-yl)-3-[(1,4-dioxa-8-azaspiro[4.5]dec-8-yl)carbonylmethyl]isoindolin-1-one, reference compound]	10 mg/kg, p.o.	9.42		
O=C(CC1c2ccccc2C(=O)N1c1ccc2ccc(Cl)nc2n1)N1CCC(O)CC1 (racemic) [Racemic compound of Example 3, 2-(7-chloro-1,8-naphthylidin-2-yl)-3-[(4-hydroxypiperidin-1-yl)carbonylmethyl]isoindolin-1-one, reference compound]		8.67	20 mg/kg, i.p.	
O=C(C[C@H]1c2ccccc2C(=O)N1c1ccc2ccc(Cl)nc2n1)N1CCC2(CC1)OCCO2 [Example 1, (S)-(+)-2-(7-chloro-1,8-naphthylidin-2-yl)-3-[(1,4-dioxa-8-azaspiro[4.5]dec-8-yl)carbonylmethyl]isoindolin-1-one]		9.49		8
O=C(C[C@H]1c2ccccc2C(=O)N1c1ccc2ccc(Cl)nc2n1)N1CCC(O)CC1 [Example 3, (S)-(+)-2-(7-chloro-1,8-naphthylidin-2-yl)-3-[(4-hydroxypiperidin-1-yl)carbonylmethyl]isoindolin-1-one]		9.04	Compound in Example 3 5.0 mg/kg, i.p.	4
